US20110054039A1, “USE OF ALKYL SULFATES OR SULFONATES AGAINST PROPIONIBACTERIUM ACNES” (priority 2008, published 2011)
Converted amounts (≈) assume the structure as drawn. Structures can show the parent of a compound that is named as a salt. Where two headings read alike, the source gives them in different places.

Legend:
Format in all cases: cell-based
[1] = tested on: Propionibacterium acnes NCTC 737; test: Minimum Inhibitory Concentration (MIC) assay, broth microdilution; settings: P. acnes NCTC 737, Wilkins-Chalgren broth pH 6.0, anaerobic, 37° C., 72 hours
Method: (§1) The test micro-organism represented the cutaneous propionibacteria. […] The propionibacteria are clinically significant due to their involvement in acne. This is a very common, complex and multi-factorial skin disease in which P. acnes and other Propionibacterium spp. […] They are also opportunistic pathogens in compromised hosts.
(§2) The propionibacteria were cultured and maintained on Wilkins-Chalgren Anaerobe Medium (agar and broth) at pH 6.0; all cultures were incubated anaerobically at 37° C. for 72 hours.
This is a standard international method for quantitatively assessing the antimicrobial activity of a compound in a liquid medium. […] The culture media were as described above.
The wells were inoculated with a liquid suspension of freshly grown micro-organism and incubated under the conditions described above. After incubation, the microtitre plate was examined visually (with the aid of a light box) for cloudiness in each well, which would indicate microbial growth. The MIC value was recorded as the lowest concentration of test compound required to inhibit microbial growth, ie the lowest concentration for which the liquid in the well remained clear.
The assays included both negative (culture medium with no micro-organisms) and positive (culture medium plus diluting solvent plus micro-organism) controls.
(§3) MIC, MBC and DDA assays, as described above, were carried out using as the test compound sodium n-tetradecyl sulphate (STS, ex Sigma Aldrich, UK), dissolved in distilled water. All the experiments were conducted in triplicate. For the DDA experiments, 200 μg of the test compound was loaded onto each disc.
(§4) The MIC/MBC experiments were conducted in triplicate, with the exception of those for SDS and ADS which were conducted in duplicate. The DDAs were performed either in triplicate, in which case standard deviations are quoted in parentheses, or as a single replicate. For the DDA experiments, 200 μg of the test compound was loaded onto each disc.

[2] = tested on: Propionibacterium acnes NCTC 737; test: Minimum Biocidal (Bactericidal) Concentration (MBC) assay; settings: P. acnes NCTC 737; for MBC: sub-culture on antibiotic-free agar after MIC assay
Method: as §1, §2
This assay, normally carried out after an MIC assay, determines the minimum concentration of a compound that is lethal to the micro-organism being tested.
These samples were then individually sub-cultured on antibiotic-free agar medium, under the incubation conditions described above. Following incubation they were examined visually for microbial growth.
as §3, §4

[3] = tested on: Propionibacterium acnes NCTC 737; test: Disc Diffusion Assay (DDA); settings: P. acnes NCTC 737, 200 μg of test compound per disc; for zone of inhibition at 200 µg/disc: Cutibacterium acnes, NCTC737, read-out: DDA (diameter of zone of inhibition)
Method: as §1, §2
This is an internationally recognised standard method for qualitatively assessing the antimicrobial activity of a compound.
(§5) A sterile paper disc was impregnated with a sample of the test compound in a suitable solvent and 30 minutes allowed for the solvents to evaporate (where possible). The disc was then placed on an agar plate onto which the test micro-organism had been inoculated. The plate was then incubated under the conditions described above, following which it was examined visually for signs of microbial growth. […] The diameter of this zone of ‘inhibition’ was measured using a ProtoCOL™ automated zone sizer (Synbiosis, Cambridge, UK).
as §3, §4

[4] = tested on: Propionibacterium acnes NCTC 737; test: Supplemented Disc Diffusion Assay (agar with salt or lipid); settings: P. acnes NCTC 737, 200 μg per disc; for zone of inhibition at 200 µg/disc: Cutibacterium acnes, NCTC737, 72 h
Method: as §1, §2, §5
Performance under these conditions can provide a more reliable indication of activity on topical application.
as §3, §4

[5] = Cutibacterium acnes, NCTC737, read-out: MIC
[6] = Cutibacterium acnes, NCTC737, read-out: MBC
[7] = agar supplemented with sodium chloride (100 mM), read-out: DDA + salt
[8] = agar supplemented with triolein at 1% v/v, read-out: DDA + lipid

| Structure (SMILES) | MIC [1, 5] [µg/mL] | MBC [2, 6] [µg/mL] | MIC/MBC ratio [2] | zone of inhibition at 200 µg/disc [3] [mm] | zone of inhibition at 200 µg/disc [4, 7] [mm] | zone of inhibition at 200 µg/disc [4, 8] [mm] | MIC [1] [µg/mL] | MBC [2] [µg/mL] | DDA (diameter of zone of inhibition) [3] [mm] | DDA + salt ([4]; agar supplemented with sodium chloride (100 mM)) [mm] | DDA + lipid ([4]; agar supplemented with triolein at 1% v/v) [mm] |
| --- | --- | --- | --- | --- | --- | --- | --- | --- | --- | --- | --- |
| CCCCC(CC)CCC(CC(C)C)OS(=O)(=O)O (stereo not drawn) [7-ethyl-2-methyl-4-hendecanol sulphate sodium salt] | 31.2 | 62.5 | 0.5 | 28.5 | 30.8 | 28.6 |  |  |  |  |  |
| CCCCCCCCCCCCOS(=O)(=O)O.N [Ammonium dodecyl sulphate (ADS), ammonium dodecyl sulphate] | 31.2 | 125 | 0.25 | 22.2 | 24.1 | 20.3 |  |  |  |  |  |
| CCCCCCCCCCCC(=O)O [Laurie acid, reference compound] |  |  |  |  |  |  | 15.6 (≈ 0.0779 mM) | 31.25 (≈ 0.156 mM) |  |  |  |
| CCCCCCCCCCCCOS(=O)(=O)[O-].[Li+] [Lithium dodecyl sulphate, lithium dodecyl sulphate] | 15.6 | 15.6 | 1 | 30 | 30.5 | 30.2 |  |  |  |  |  |
| CCCCS(=O)(=O)[O-].[Na+] [Sodium 1-butane sulphonate, sodium 1-butane sulphonate] | > 250 | > 250 |  | 0 | 0 | 0 |  |  |  |  |  |
| CCCCCCCCCCS(=O)(=O)[O-].[Na+] [Sodium 1-decane sulphonate, sodium 1-decane sulphonate] | > 250 | > 250 |  | 0 | 0 | 0 |  |  |  |  |  |
| CCCCCCCCCCCCS(=O)(=O)[O-].[Na+] [Sodium 1-dodecanesulphonate, sodium 1-dodecanesulphonate] | 125 | 250 | 0.5 | 18.1 | 23 | 18.4 |  |  |  |  |  |
| CCCCCCCS(=O)(=O)[O-].[Na+] [Sodium 1-heptane sulphonate, sodium 1-heptane sulphonate] | > 250 | > 250 |  | 0 | 0 | 10.6 |  |  |  |  |  |
| CCCCCCCCCCCCCCCCS(=O)(=O)[O-].[Na+] [Sodium 1-hexadecane sulphonate, sodium 1-hexadecane sulphonate] | 1.95 | 3.9 | 0.5 | 0 | 0 | 0 |  |  |  |  |  |
| CCCCCCCCCS(=O)(=O)[O-].[Na+] [Sodium 1-nonanesulphonate, sodium 1-nonanesulphonate] | > 250 | > 250 |  | 0 | 0 | 0 |  |  |  |  |  |
| CCCCCCCCCCCCCCCCCCS(=O)(=O)O.[Na] [Sodium 1-octadecane sulphonic acid, sodium 1-octadecane sulphonic acid] | 125 | > 250 | <0.5 | 0 | 0 | 0 |  |  |  |  |  |
| CCCCCCCCS(=O)(=O)O.[Na] [Sodium 1-octane sulphonic acid, sodium 1-octane sulphonic acid] | > 250 | > 250 |  | 0 | 0 | 0 |  |  |  |  |  |
| CCCCCCCCCCCCCCCS(=O)(=O)O.[Na] [Sodium 1-pentadecane sulphonic acid, sodium 1-pentadecane sulphonic acid] | 0.98 | 3.9 | 0.25 | 11.8 | 12.1 | 0 |  |  |  |  |  |
| CCCS(=O)(=O)[O-].O.[Na+] [Sodium 1-propanesulphate monohydrate, sodium 1-propanesulphate monohydrate] |  |  |  |  |  |  | >250 | >250 | 0.00 | 0.00 | 0.00 |
| CCCCCCCCCCCCCCS(=O)(=O)O.[Na] [Sodium 1-tetradecane sulphonic acid, sodium 1-tetradecane sulphonic acid] | 3.9 | 15.6 | 0.25 | 11.2 | 12.4 | 9.61 |  |  |  |  |  |
| CCCCCCCCCCCCCS(=O)(=O)O.[Na] [Sodium 1-tridecane sulphonic acid, sodium 1-tridecane sulphonic acid] | 15.6 | 31.2 | 0.5 | 28.6 | 29.3 | 27.4 |  |  |  |  |  |
| CCCCCCCCCCOS(=O)(=O)[O-].[Na+] [Sodium decyl sulphate, sodium decyl sulphate] | 250 | > 250 | <1 | 0 | 0 | 0 |  |  |  |  |  |
| CCCCCCCCCCCCOS(=O)(=O)[O-].[Na+] [Sodium dodecyl sulphate (SDS), sodium dodecyl sulphate] | 31.2 | 62.5 | 0.5 | 30.7 | 28.2 | 28.2 |  |  |  |  |  |
| CCCCCCCCCCCCCCCCOS(=O)(=O)[O-].[Na+] [Sodium hexadecyl sulphate, sodium hexadecyl sulphate] | 0.98 | 1.95 | 0.5 | 36.3 | 32.4 | 39.8 |  |  |  |  |  |
| CCCCCCCCCCCCCC(=O)O [myristic acid, reference compound] | > 1000 | > 1000 |  |  |  |  |  |  |  |  |  |
| CCCCCCCCCCCCCCCC(=O)O [palmitic acid, reference compound] | > 1000 | > 1000 |  |  |  |  |  |  |  |  |  |
